System: Rattus norvegicus
Conditions: oral
[1] = short-term, duration: 28 days, gavage, M/F, CD(SD)ICS BR, Clinical Observation: Fur-staining Hypoactivity(one animal)Hunched posture(one animal)Weight loss(one animal)Pallor(one animal) + Urinalysis…
[2] = short-term, duration: 28 days, gavage, F, Sprague-Dawley, Clinical Observation: Soiled perigenital fur + Body Weight Changes: Gain decrease + Urinalysis: Pale yellow or yellow/slightly brownish + …
[3] = short-term, duration: 28 days, gavage, M, Sprague-Dawley, Clinical Observation: Soiled perigenital fur + Body Weight Changes: Gain decrease + Urinalysis: Pale yellow or yellow/slightly brownish + …
[4] = short-term, duration: 28 days, gavage, F, Sprague-Dawley, Blood Chemistry: Glu decrease, ChE increase, BUN increase + Absolute Organ Weight: Thyroid increase(trend) + Relative Organ Weight: Thyroid …
[5] = short-term, duration: 28 days, gavage, M, Sprague-Dawley, Blood Chemistry: Glu decrease, ChE increase, BUN increase + Absolute Organ Weight: Thyroid increase(trend) + Relative Organ Weight: Thyroid …
[6] = short-term, duration: 28 days, gavage, M, Sprague-Dawley, Clinical Observation: Locomotor activity decrease, SalivationRespiratory rate decrease, Incomplete eyelid opening + Body Weight Changes: …
[7] = short-term, duration: 28 days, gavage, F, Sprague-Dawley, Deaths + Clinical Observation: Locomotor activity decrease, Abnormal respiratory sound Deep respiration Pale skin Hypothermia Ptosis …
[8] = short-term, duration: 28 days, gavage, M, Sprague-Dawley, Deaths + Clinical Observation: Locomotor activity decrease, Abnormal respiratory sound Deep respiration Pale skin Hypothermia Ptosis …
[9] = subchronic, gavage, M, Sprague-Dawley, Clinical Observation: Soft stool + Urinalysis: pH decrease(trend)Phosphate crystal (grade, frequency) decrease + Histopathology: Stomach-…
[10] = subchronic, gavage, M, Sprague-Dawley, Absolute Organ Weight: Seminal vesicle increase, Prostate increase + Relative Organ Weight: Seminal vesicle increase, Prostate increase
[11] = subchronic, gavage, M, Sprague-Dawley, Water Consumption: increase + Urinalysis: Osmotic pressure decrease, Volume increase, R
[12] = short-term, duration: 28 days, gavage, F, Sprague-Dawley, Water Consumption: increase + Urinalysis: Volume increase, Osmolarity decrease, Bil increase + Hematology: RBC decrease300 Hgb decrease300 …
[13] = short-term, duration: 28 days, gavage, M, Sprague-Dawley, Water Consumption: increase + Urinalysis: Volume increase, Osmolarity decrease, Bil increase + Hematology: RBC decrease300 Hgb decrease300 …

SMILES: C=CC(C)(O)CCCC(C)CCCC(C)CCCC(C)C (stereo not given) [Isophytol]
- NOAEL [1]: 500 mg/kg-day
- NOEL [1]: 250 mg/kg-day

SMILES: O=C(CO)[C@@H](O)[C@H](O)[C@H](O)CO[C@H]1O[C@H](CO)[C@@H](O)[C@H](O)[C@H]1O [6-O-Hexopyranosylhex-2-ulofuranose]
- NOEL (subchronic, duration: 13 weeks, diet, Wistar): 10%

SMILES: CC[Si](Cl)(Cl)Cl [Ethyl silicon trichloride]
- NOAEL (short-term, duration: 28 days, gavage, M/F, Wistar, Clinical Observation: Staggering gait + Body Weight Changes: decrease + Relative Organ Weight: Liver increase, (Low and middle doses were …): 250 mg/kg-day

SMILES: C=CC(F)(F)C(F)(F)C(F)(F)C(F)(F)C(F)(F)C(F)(F)C(F)(F)C(F)(F)F [1H,1H,2H-Perfluoro-1-decene]
- NOEL (short-term, duration: 28 days, gavage, M/F, Hematology: Trend of anemia + Blood Chemistry: GOT increase, GPT increase, T-CHO decrease + Absolute Organ Weight: Liver increase + …): 8 mg/kg-day

SMILES: CCC(C)(C)c1ccccc1 [tert-Pentylbenzene]
- LOEL [2]: 1000 mg/kg-day
- NOEL [2]: 300 mg/kg-day
- LOEL [3]: 100 mg/kg-day
- NOEL [3]: < 100 mg/kg-day

SMILES: CN(C)c1cccc(C(=O)O)c1 [Benzoic acid, 3-(dimethylamino)-]
- NOEL (subchronic, gavage, M, Sprague-Dawley, Clinical Observation: Salivation + Blood Chemistry: Bil increase, Cl decrease + Relative Organ Weight: Heart increase): 200 mg/kg-day

SMILES: COc1ccccc1OCCNCC(O)COc1cccc2[nH]c3ccccc3c12 (stereo not given) [Carvedilol]
- NOEL (chronic, duration: 91 days, gavage, M/F, Wistar, Deaths + Clinical Observation: Salivation Lacrimation Ptosis Locomotor activity decrease + Body Weight Changes: Body weight gain decrease + …): 30 mg/kg-day

SMILES: O[Si](O)(C1CCCC1)C1CCCC1 [Dicyclopentylsilanediol]
- NOEL (subchronic, duration: 90 days, gavage, M, Sprague-Dawley, Clinical Observation: Ataxic gait SalivationDecreased locomotor activity + Blood Chemistry: TG decrease + Relative Organ Weight: Liver …): 40 mg/kg-day

SMILES: C1C2CC3CC1CC(C2)C3 [Adamantane]
- LOEL [4]: 1000 mg/kg-day
- NOEL [4]: 200 mg/kg-day
- LOEL [5]: 40 mg/kg-day
- NOEL [5]: < 40 mg/kg-day

SMILES: CCCCCCCCCCC=O [Undecanal]
- NOAEL (subchronic, duration: 42 days, gavage, M, CD(SD), Clinical Observation: Salivation (transient)): 1000 mg/kg-day

SMILES: Nc1nc(=S)[nH][nH]1 [3-Amino-1,2,4-triazole-5-thiol]
- NOEL (subchronic, gavage, M/F, Sprague-Dawley, Deaths + Clinical Observation: White turbid urine SalivationSoft stool + Body Weight Changes: decrease + Food Consumption: decrease + …): 10 mg/kg-day

SMILES: Oc1cccc2cccnc12 [8-Hydroxyquinoline]
- NOEL (subchronic, gavage, M, Sprague-Dawley, Clinical Observation: Salivation + Functional Observational Battery: Salivation + Body Weight Changes: Body weight gain decrease(tendency)…): 100 mg/kg-day

SMILES: CC(C)(C)c1cc2nc(-c3ccc(N)cc3)nn2[nH]1
- NOEL (short-term, duration: 28 days, gavage, M/F, Deaths + Clinical Observation: Locomotor activity decrease, Piloerection + Body Weight Changes: Gain decrease + Hematology: RBC decrease, …): 2 mg/kg-day

SMILES: CC(C)OC1(OC(C)C)CCCCC1 [1,1-Diisopropoxycyclohexane]
- NOEL (subchronic, gavage, M, Sprague-Dawley, Clinical Observation: Salivation + Food Consumption: increase + Blood Chemistry: T-Cho increase + Absolute Organ Weight: Liver increase, …): 40 mg/kg-day

SMILES: Nc1ccc(Nc2ccccc2)cc1 [N-Phenyl-1,4-benzenediamine]
- NOAEL (subchronic, duration: 90 days, diet, M, Wistar, Body Weight Changes: Body weight gain decrease + Food Consumption: decrease + Hematology: RBC decrease, HGB decrease, HCT decrease, MCV …): 96 mg/kg-day

SMILES: CN(C)C(=O)Nc1ccc(Cl)cc1 [Monuron]
- NOAEL [6]: < 40 mg/kg-day
- NOEL [6]: < 40 mg/kg-day

SMILES: O=[N+]([O-])C(Br)(CO)CO [Bronopol]
- LOEL [7]: 30 mg/kg-day
- NOEL [7]: 10 mg/kg-day
- LOEL [8]: 90 mg/kg-day
- NOEL [8]: 30 mg/kg-day

SMILES: BrCCCCCCCCCCBr [1,10-Dibromodecane-]
- NOEL (short-term, duration: 28 days, gavage, M/F, Sprague-Dawley, Clinical Observation: Salivation + Water Consumption: increase + Blood Chemistry: BUN increase, Cl increase + Absolute Organ Weight: Liver …): < 8 mg/kg-day

SMILES: O=C(O)c1cc(C(=O)O)c(C(=O)O)cc1C(=O)O [Pyromellitic acid]
- LOEL [9]: 100 mg/kg-day
- NOEL [9]: < 100 mg/kg-day

SMILES: CN(c1nccc(=O)[nH]1)C1CCN(c2nc3ccccc3n2Cc2ccc(F)cc2)CC1 [Mizolastine]
- NOAEL (chronic, duration: 182 days, gavage, M/F, Sprague-Dawley, Clinical Observation: Salivation + Urinalysis: Volume increase + Blood Chemistry: IP increase + Absolute Organ Weight: Liver increase, …): 5 mg/kg-day

SMILES: c1ccc(Nc2ccc3ccccc3c2)cc1 [N-Phenyl-2-naphthylamine]
- NOEL (subchronic, duration: 13 weeks, diet, M/F, Fischer 344, Deaths + Clinical Observation: Rough coats + Body Weight Changes: decrease + Absolute Organ Weight: Liver increase + Relative Organ Weight…): 240 mg/kg-day

SMILES: C=CCCCC=C(C)C [1,6-Octadiene, 7-methyl-]
- NOEL (short-term, duration: 28 days, gavage, M/F, Clinical Observation: Salivation + Blood Chemistry: TG increase): 10 mg/kg-day

SMILES: CC/C=C\CCOC(C)=O [(3Z)-3-Hexenyl acetate]
- NOAEL [10]: 1000 mg/kg-day
- NOEL [10]: 300 mg/kg-day

SMILES: NCCS(=O)(=O)O [l-Taurine]
- LOEL [11]: 1000 mg/kg-day
- NOAEL [11]: 1000 mg/kg-day
- NOEL [11]: 300 mg/kg-day

SMILES: C=CS(=O)(=O)CCNC(=O)c1cccc(Nc2nc(F)nc(Nc3cc(S(=O)(=O)[O-])cc4cc(S(=O)(=O)[O-])c(N=Nc5ccc6c(S(=O)(=O)[O-])cccc6c5S(=O)(=O)[O-])c(O)c34)n2)c1.[Na+].[Na+].[Na+].[Na+]
- NOEL (short-term, duration: 28 days, gavage, M/F, Urinalysis: Occult blood increase, Bil increase + Hematology: RET increase, WBC increase, LYMPH increase + Blood Chemistry: BUN increase, T-…): 50 mg/kg-day

SMILES: Cc1cc(S(=O)(=O)[O-])c(N)cc1Cl.[Na+]
- NOEL (subchronic, gavage, M, Sprague-Dawley, Food Consumption: increase + Urinalysis: pH decrease + Absolute Organ Weight: Kidney increase + Relative Organ Weight: Kidney increase): 300 mg/kg-day

SMILES: CC(O)c1ccccc1 (stereo not drawn) [alpha-Methylbenzyl alcohol]
- NOEL (subchronic, duration: 13 weeks, gavage, M/F, Fischer 344, Deaths + Clinical Observation: Ataxia Rapid breathing Lethargy + Body Weight Changes: decrease + Urinalysis: -- + Absolute Organ Weight: …): < 93 mg/kg-day

SMILES: CC(C)(C)c1cc(-n2nc3ccc(Cl)cc3n2)c(O)c(C(C)(C)C)c1
- NOAEL (subchronic, duration: 42 days, gavage, M, CD(SD), Hematology: RBC decrease, NEUT increase, APTT decrease + Blood Chemistry: ALB increase, A/G increase, ALP increase, T-BIL decreasea2-GLOB …): 2.5 mg/kg-day

SMILES: Nc1c(S(=O)(=O)O)cc(Br)c2c1C(=O)c1ccccc1C2=O
- NOEL (short-term, duration: 28 days, gavage, M/F, Deaths + Clinical Observation: Polyuria + Body Weight Changes: Body weight gain decrease + Water Consumption: increase + Urinalysis: Urine …): 50 mg/kg-day

SMILES: Nc1ccccc1-c1ccccc1 [2-Biphenylamine]
- LOEL [12]: 30 mg/kg-day
- NOEL [12]: < 30 mg/kg-day
- LOEL [13]: 100 mg/kg-day
- NOEL [13]: 30 mg/kg-day

SMILES: CC(C)OC(=O)C(C)(C)Oc1ccc(C(=O)c2ccc(Cl)cc2)cc1 [Fenofibrate]
- NOAEL (chronic, duration: 91 days, gavage, M/F, CD, Body Weight Changes: decrease + Food Consumption: decrease + Urinalysis: WBCEpithelial cell + Hematology: RBC decrease, HCT decrease, HGB …): 5 mg/kg-day

SMILES: CCCN(CCC)S(=O)(=O)c1ccc(C(=O)O)cc1 [Probenecid]
- NOEL (subchronic, duration: 13 weeks, gavage, M/F, Fischer 344, Clinical Observation: Yellow-brown staining of the perineum + Body Weight Changes: decrease + Absolute Organ Weight: Liver increase, Right …): < 50 mg/kg-day
